Results from patent US8715959B2, “Substitution mutant receptors and their use in a nuclear receptor-based inducible gene expression system” (priority 2001, dated 2014).
Changes are numbered by the printed parent chain. In names and notes the source's numbering stands.

Experiments:
WT full-length EcR = assay: In vitro ligand binding assay with 3H-RH2485 and cold competitors, full-length WT EcR (FIG. 1); parameters: species or system Choristoneura fumiferana; settings: cold ligand as competitor
Procedure: (§1) Applicants tested the A110P mutant CfEcR receptor in a steroid and non-steroid ligand binding assay to confirm that steroid binding was eliminated. Briefly, PonA binding activity was determined using an in vitro ligand binding assay (LBA). Steroid ligand binding assay (LBA) was performed using ^3H-PonA (200 Ci/mmol). In vitro translated Gal4/wild-type or A110P mutant CfEcR-DEF and bacterial expressed GST-CfUSP-A/BCDEF were used in the assay. The assay was performed with 8 μL of Gal4/wild-type or A110P mutant CfEcR-DEF, 2.5 uL of GST-CfUSP-A/BCDEF, 1 μL of ^3H-PonA, and 2 μL of unlabeled (“cold”) PonA as competitor in the presence of T buffer [90 mM Tris pH 8.0, 10 μM DTT comprising Complete™ protease inhibitor cocktail used according to the manufacturer's instructions (Boehringer Mannheim)]. The reaction was carried out at room temperature for 1 hour followed by the addition of dextran-coated charcoal (Sigma). The mixture was centrifuged at 7000×g for 10 minutes the amount of ^3H-PonA in the supernatant was measured. The reactions were done in triplicate. The full-length WT EcR or its A110P mutant were also in vitro translated and transcribed using the TNT system (Promega) according to the manufacturer's instructions and tested in in vitro ligand binding assays using 3H-RH2485, with cold 20E or non-steroids (RH2485 and GS™-E) as competitors. In addition, 5 μL of the in vitro translations were assayed for translation efficiency using SDS-PAGE following standard methods (Maniatis, 1989). The ligand binding results for both the wild-type and A110P mutant CfEcR-DEF receptors were calculated and are shown in FIG. 1.

A110P mutant CfEcR = assay: In vitro ligand binding assay with 3H-RH2485 and cold competitors, full-length A110P mutant (FIG. 1); parameters: species or system Choristoneura fumiferana; settings: cold ligand as competitor of 3H-RH2485
Procedure: as §1

wild-type CfEcR-A/BCDEF = target: T1, wild-type CfEcR-A/BCDEF (Choristoneura fumiferana, UniProt O77240); assay: 3H-RH2485 competition ligand binding, wild-type CfEcR-A/BCDEF with CfUSP
T1 construct: "The full-length spruce budworm Choristoneura fumiferana EcR (“CfEcR-A/BCDEF”); b350 and b353 describe plain full-length EcR translated in vitro

[1] = target: A110P mutant CfEcR-A/BCDEF (Choristoneura fumiferana, UniProt O77255, A393P); assay: 3H-RH2485 competition ligand binding, A110P mutant CfEcR-A/BCDEF with CfUSP
Procedure: The ligand binding affinities of the A110P GAL4/CfEcR mutant were measured by binding ^3H-RH2485 and competing it with different concentrations of cold steroids or non-steroids. Briefly, 3H-RH2485 was bound to in vitro translated full-length CfEcR and bacterially expressed CfUSP and competed with increasing concentrations of cold steroidal or non-steroidal ligands. The reaction was carried out at room temperature for 1 hour followed by addition of activated dextran coated charcoal and centrifugation at 7000×g for 10 minutes at 4° C. The residual ^3H-RH2485 in the supernatant after centrifugation was measured using a scintillation counter. The fraction bound (f bound) values were determined and plotted against the concentration of ligand (in mM).

DmEcR-CDEF [2] = assay: VP16/DmEcR-CDEF wild-type and mutants, 6xEcRE β-gal reporter transactivation in insect L57 cells; assay type: cell-based, Drosophila melanogaster; settings: for Fold increase over WT, 1 μM 20-hydroxyecdysone / Fold increase over WT, 1 μM GS™-E: VP16/DmEcR-CDEF; for steroid activity (summary of Table 14): 20E; for steroid activity (summary of Table 14) / non-steroid activity (summary of Table 14): DmEcR mutants; for non-steroid activity (summary of Table 14): GS™-E
Procedure: The wild-type and mutant DmEcR-CDEF receptors were also used to make VP16/wild-type or mutantDmEcR-CDEF constructs as described in Example 1.10 and 1.11. VP16DmEcR-CDEF and a 6×EcREβ-gal reporter were transfected into L57 cells and the transfected cells were treated with 1 uM 20-hydroxyecdysone (20E) or GS™-E. The cells were harvested, lysed and the reporter activity was measured as described above in Example 6. The fold induction was calculated by dividing reporter activity in the presence of ligand with the reporter activity in the absence of ligand. From the fold induction, percent wild-type activity was calculated for each mutant.

DmEcR-CDEF [3] = assay: GAL4/DmEcR-CDEF wild-type and mutants, luciferase reporter transactivation in NIH3T3 cells; assay type: cell-based, Drosophila melanogaster; settings: GAL4/DmEcR-CDEF + VP16/LmUSP-EF + pFRLUC, 48 hours
Procedure: DNAs corresponding to the various switch constructs outlined in Example 1, specifically switches 1.1-1.2, were transfected into mouse NIH3T3 cells (ATCC) as follows. […] Two μl of Superfect™ was mixed with 100 μl of growth medium and 50 ng of either GAL4/wild-type EcR or Gal4/mutant EcR cassette, 50 ng of VP16/LmUSP-EF and 200 ng of pFRLuc were added to the transfection mix. […] The cells were harvested and reporter activity was assayed as described above.
Applicants mutated amino acid residues predicted to be critical for ecdysteroid binding and created GAL4/mutantDmEcR-CDEF cDNA gene expression cassettes as described in Example 1 above using PCR-mediated site-directed mutagenesis. The mutated and the WT cDNAs corresponding to the various switch constructs outlined above in Examples 1.8 and 1.9 were made and tested in reporter assays in NIH3T3 cells as described in Example 2. Each GAL4/DmEcR-CDEF construct, VP16/LmUSP-EF, and pFRLUC were transfected into NIH3T3 cells and the transfected cells were treated with 2.5 μM GS-™E or Ponasterone A. The cells were harvested and the reporter activity was measured at 48 hours after addition of ligand. The fold induction was calculated by dividing reporter activity in the presence of ligand with the reporter activity in the absence of ligand. From the fold induction, percent wild-type activity was calculated for each mutant.

CfEcR-DEF = assay: GAL4 fusions of A110 mutants of CfEcR-DEF, reporter transactivation in NIH3T3 cells (FIG. 4); assay type: cell-based, Choristoneura fumiferana; settings: 0.04-25 μM GS™-E or RH-125020, 48 hours
Procedure: Four mutations: A110S, A110P, A110L, and A110M were obtained. These four mutant and wild-type receptors were assayed in NIH3T3 cells.

A110P mutant CfEcR-A/BCDEF, sequence (O77255 entry or part of it A393P): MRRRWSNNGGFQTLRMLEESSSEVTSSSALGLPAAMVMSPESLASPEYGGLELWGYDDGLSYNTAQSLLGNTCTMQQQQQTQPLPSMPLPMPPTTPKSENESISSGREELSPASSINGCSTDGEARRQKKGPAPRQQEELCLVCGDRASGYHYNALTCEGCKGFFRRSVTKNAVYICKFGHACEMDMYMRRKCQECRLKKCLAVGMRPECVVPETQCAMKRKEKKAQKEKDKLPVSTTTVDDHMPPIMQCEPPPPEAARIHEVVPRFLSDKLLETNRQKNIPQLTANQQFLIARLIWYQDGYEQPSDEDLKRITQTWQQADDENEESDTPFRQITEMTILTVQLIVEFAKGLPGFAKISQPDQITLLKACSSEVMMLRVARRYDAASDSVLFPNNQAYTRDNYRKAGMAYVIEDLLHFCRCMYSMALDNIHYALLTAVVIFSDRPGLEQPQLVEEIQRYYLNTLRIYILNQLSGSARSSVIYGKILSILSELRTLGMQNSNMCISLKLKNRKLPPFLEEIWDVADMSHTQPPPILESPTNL
A110P mutant CfEcR-A/BCDEF, sequence (O76202 whole entry, further chain, the tested form may be a part): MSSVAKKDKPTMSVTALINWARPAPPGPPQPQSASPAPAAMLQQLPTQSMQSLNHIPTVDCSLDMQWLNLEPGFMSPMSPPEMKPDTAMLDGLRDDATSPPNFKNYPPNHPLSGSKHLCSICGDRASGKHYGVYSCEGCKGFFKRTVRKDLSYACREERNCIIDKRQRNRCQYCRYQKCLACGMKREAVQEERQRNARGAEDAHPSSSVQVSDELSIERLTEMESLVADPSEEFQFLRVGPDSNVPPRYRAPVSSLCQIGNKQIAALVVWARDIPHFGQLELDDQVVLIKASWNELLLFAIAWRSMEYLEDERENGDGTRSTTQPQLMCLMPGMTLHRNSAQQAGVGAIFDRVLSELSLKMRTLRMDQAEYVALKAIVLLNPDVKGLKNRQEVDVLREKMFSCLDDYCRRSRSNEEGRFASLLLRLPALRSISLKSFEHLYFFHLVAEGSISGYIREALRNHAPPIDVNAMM

Molecule: COc1cccc(C(=O)NN(C(=O)c2cc(C)cc(C)c2)C(C)(C)C)c1C [RH-2485, N′-tert-butyl-N′-(3,5-dimethylbenzoyl)-3-methoxy-2-methylbenzohydrazide]
- competition with bound 3H-RH2485 (binding to WT full-length EcR) (WT full-length EcR): able to effectively compete
- binding of ligand by the A110P mutant (A110P mutant CfEcR): unaffected
- IC50 (wild-type CfEcR-A/BCDEF): 1.8 µM
- IC50 [1]: 0.35 µM

Molecule: CC(C)CC[C@@H](O)[C@](C)(O)[C@H]1CC[C@@]2(O)C3=CC(=O)[C@@H]4C[C@@H](O)[C@@H](O)C[C@]4(C)[C@H]3CC[C@]12C [Ponasterone A, ponasterone A]
- IC50 (wild-type CfEcR-A/BCDEF): 0.346 µM
- IC50 [1]: > 1000 µM

Molecule: Cc1cc(C)cc(C(=O)N(NC(=O)c2ccc3c(c2C)OCCO3)C(C)(C)C)c1 [RH-125020, N′-tert-butyl-N′-(3,5-dimethylbenzoyl)-3,4-(1,2-ethylenedioxy)-2-methylbenzohydrazide]
- IC50 (wild-type CfEcR-A/BCDEF): 0.0101 µM
- IC50 [1]: 0.0257 µM

Molecule: CC(C)CC[C@@H](O)[C@](C)(O)[C@H]1CC[C@@]2(O)C3=CC(=O)[C@]4(O)C[C@@H](O)[C@@H](O)C[C@]4(C)[C@H]3[C@H](O)C[C@]12C [Muristerone A, muristeroneA]
- IC50 (wild-type CfEcR-A/BCDEF): 0.424 µM
- IC50 [1]: > 1000 µM

Molecule: CC(C)(O)CC[C@@H](O)[C@](C)(O)[C@H]1CC[C@@]2(O)C3=CC(=O)[C@@H]4C[C@@H](O)[C@@H](O)C[C@]4(C)[C@H]3CC[C@]12C [Mutant 20E, 20-hydroxyecdysone]
- competition with bound 3H-RH2485 (binding to WT full-length EcR) (WT full-length EcR): able to effectively compete
- binding of ligand by the A110P mutant (A110P mutant CfEcR): completely disrupted

Molecule: CCc1c(OC)cccc1C(=O)NN(C(=O)c1cc(C)cc(C)c1)C(C)(C)C [GS ™-E, N-(2-ethyl-3-methoxybenzoyl)-N′-(3,5-dimethylbenzoyl)-N′-tert-butylhydrazine]
- competition with bound 3H-RH2485 (binding to WT full-length EcR) (WT full-length EcR): able to effectively compete
- binding of ligand by the A110P mutant (A110P mutant CfEcR): unaffected
- IC50 (wild-type CfEcR-A/BCDEF): 0.0853 µM
- IC50 [1]: 0.0129 µM

Molecule: CCc1ccc(C(=O)NN(C(=O)c2cc(C)cc(C)c2)C(C)(C)C)cc1 [RH-5992]
- IC50 (wild-type CfEcR-A/BCDEF): 0.133 µM
- IC50 [1]: 0.322 µM

B1: C217A: DmEcR-CDEF LBD substitution mutant, Cysteine (C) to Alanine (A) (protein)
chain: LTYNQLAVIYKLIWYQDGYEQPSEEDLRRIMSQPDENESQTDVSFRHITEITILTVQLIVEFAKGLPAFTKIPQEDQITLLKACSSEVMMLRMARRYDHSSDSIFFANNRSYTRDSYKMAGMADNIEDLLHFCRQMFSMKVDNVEYALLTAIVIFSDRPGLEKAQLVEAIQSYYIDTLRIYILNRHCGDSMSLVFYAKLLSILTELRTLGNQNAEMAFSLKLKNRKLPKFLEEIWDV
modifications: Drosophila melanogaster
- Fold increase over WT, 1 μM 20-hydroxyecdysone (DmEcR-CDEF [2]): 0.48 fold
- Fold increase over WT, 1 μM GS™-E (DmEcR-CDEF [2]): 0.70 fold
- steroid activity (summary of Table 14) (DmEcR-CDEF [2]): reduced
- non-steroid activity (summary of Table 14) (DmEcR-CDEF [2]): reduced
- Fold increase over WT, 2.5 μM GS™-E (DmEcR-CDEF [3]): 0.008 fold
- Fold increase over WT, 2.5 μM Ponasterone A (DmEcR-CDEF [3]): 0.022 fold

B2: G121L: DmEcR-CDEF LBD substitution mutant, Glycine (G) to Leucine (L) (protein)
chain: B1 chain with G121L, A217C
modifications: Drosophila melanogaster
- Fold increase over WT, 1 μM 20-hydroxyecdysone (DmEcR-CDEF [2]): 0.09 fold
- Fold increase over WT, 1 μM GS™-E (DmEcR-CDEF [2]): 0.15 fold
- steroid activity (summary of Table 14) (DmEcR-CDEF [2]): lost sensitivity
- non-steroid activity (summary of Table 14) (DmEcR-CDEF [2]): lost sensitivity
- Fold increase over WT, 2.5 μM GS™-E (DmEcR-CDEF [3]): 0.008 fold
- Fold increase over WT, 2.5 μM Ponasterone A (DmEcR-CDEF [3]): 0.001 fold

B3: A110S: CfEcR-DEF LBD substitution mutant, Alanine (A) to Serine (S) (protein, listed as Choristoneura fumiferana)
chain: LTANQQFLIARLIWYQDGYEQPSDEDLKRITQTWQQADDENEESDTPFRQITEMTILTVQLIVEFAKGLPGFAKISQPDQITLLKACSSEVMMLRVARRYDAASDSVLFSNNQAYTRDNYRKAGMAYVIEDLLHFCRCMYSMALDNIHYALLTAVVIFSDRPGLEQPQLVEEIQRYYLNTLRIYILNQLSGSARSSVIYGKILSILSELRTLGMQNSNMCISLKLKNRKLPPFLEEIWDV
- non-steroid reporter activity compared to wild-type receptor (CfEcR-DEF): lower sensitivity and no detectable transactivation at the two lowest concentrations

B4: A110L: CfEcR-DEF LBD substitution mutant, Alanine (A) to Leucine (L) (protein, listed as Choristoneura fumiferana)
chain: B3 chain with S110L
- non-steroid reporter activity compared to wild-type receptor (CfEcR-DEF): lower sensitivity and no detectable transactivation at the two lowest concentrations

B5: A110M: CfEcR-DEF LBD substitution mutant, Alanine (A) to Methionine (M) (protein, listed as Choristoneura fumiferana)
chain: B3 chain with S110M
- non-steroid reporter activity compared to wild-type receptor (CfEcR-DEF): lower sensitivity and no detectable transactivation at the two lowest concentrations
